Test: mn = molality of the nth substance listed, in mol/kg
Conditions: 75 kPa, Liquid, Buoyancy - hydrostatic balance with magnetic suspension - one sinker

NCC(=O)O [2-aminoacetic acid] + O
Conditions	mass density [kg/m3]
275.63 K, m1 = 0.02975	1000.98
275.63 K, m1 = 0.03917	1001.3
275.63 K, m1 = 0.05033	1001.69
275.63 K, m1 = 0.0596	1002
275.63 K, m1 = 0.07025	1002.37
275.63 K, m1 = 0.07948	1002.68
275.63 K, m1 = 0.089	1003.01
275.63 K, m1 = 0.09846	1003.34
276.13 K, m1 = 0.03055	1001.01
276.13 K, m1 = 0.04004	1001.34
276.13 K, m1 = 0.05063	1001.71
276.13 K, m1 = 0.05984	1002.02
276.13 K, m1 = 0.06886	1002.32
276.13 K, m1 = 0.08159	1002.76
276.13 K, m1 = 0.08976	1003.05
276.13 K, m1 = 0.1001	1003.39
276.69 K, m1 = 0.02962	1000.98
276.69 K, m1 = 0.03964	1001.32
276.69 K, m1 = 0.04889	1001.63
276.69 K, m1 = 0.06028	1002.02
276.69 K, m1 = 0.06972	1002.34
276.69 K, m1 = 0.07961	1002.68
276.69 K, m1 = 0.0885	1002.98
276.69 K, m1 = 0.1008	1003.39
277.12 K, m1 = 0.02962	1000.96
277.12 K, m1 = 0.03964	1001.31
277.12 K, m1 = 0.04889	1001.62
277.12 K, m1 = 0.06028	1002.01
277.12 K, m1 = 0.06972	1002.32
277.12 K, m1 = 0.07961	1002.66
277.12 K, m1 = 0.0885	1002.97
277.12 K, m1 = 0.1008	1003.38
277.67 K, m1 = 0.02975	1000.98
277.67 K, m1 = 0.03917	1001.3
277.67 K, m1 = 0.05033	1001.68
277.67 K, m1 = 0.0596	1002
277.67 K, m1 = 0.07025	1002.36
277.67 K, m1 = 0.07948	1002.67
277.67 K, m1 = 0.085	1002.85
277.67 K, m1 = 0.09846	1003.32
278.12 K, m1 = 0.02966	1000.97
278.12 K, m1 = 0.04207	1001.38
278.12 K, m1 = 0.05006	1001.65
278.12 K, m1 = 0.06152	1002.04
278.12 K, m1 = 0.06869	1002.28
278.12 K, m1 = 0.0814	1002.71
278.12 K, m1 = 0.08635	1002.88
278.12 K, m1 = 0.09984	1003.33
278.65 K, m1 = 0.02951	1000.95
278.65 K, m1 = 0.04154	1001.35
278.65 K, m1 = 0.04986	1001.64
278.65 K, m1 = 0.05429	1001.78
278.65 K, m1 = 0.07168	1002.36
278.65 K, m1 = 0.08119	1002.67
278.65 K, m1 = 0.0895	1002.96
278.65 K, m1 = 0.09674	1003.2

CCC(N)C(=O)O (stereo not drawn) [(.+-.)-α-aminobutyric acid] + O
Conditions	mass density [kg/m3]
275.63 K, m1 = 0.03017	1000.84
275.63 K, m1 = 0.03851	1001.09
275.63 K, m1 = 0.04794	1001.36
275.63 K, m1 = 0.06041	1001.72
275.63 K, m1 = 0.072	1002.07
275.63 K, m1 = 0.07612	1002.18
275.63 K, m1 = 0.08971	1002.58
275.63 K, m1 = 0.0967	1002.78
276.13 K, m1 = 0.03035	1000.85
276.13 K, m1 = 0.03896	1001.1
276.13 K, m1 = 0.04967	1001.42
276.13 K, m1 = 0.05823	1001.67
276.13 K, m1 = 0.07075	1002.03
276.13 K, m1 = 0.08046	1002.31
276.13 K, m1 = 0.0901	1002.6
276.13 K, m1 = 0.0968	1002.78
276.69 K, m1 = 0.0256	1000.72
276.69 K, m1 = 0.03484	1000.99
276.69 K, m1 = 0.04383	1001.25
276.69 K, m1 = 0.05138	1001.47
276.69 K, m1 = 0.06131	1001.77
276.69 K, m1 = 0.06872	1001.99
276.69 K, m1 = 0.0783	1002.24
276.69 K, m1 = 0.08694	1002.51
277.12 K, m1 = 0.03035	1000.86
277.12 K, m1 = 0.03896	1001.12
277.12 K, m1 = 0.04967	1001.42
277.12 K, m1 = 0.05823	1001.68
277.12 K, m1 = 0.07075	1002.04
277.12 K, m1 = 0.08046	1002.31
277.12 K, m1 = 0.0901	1002.6
277.12 K, m1 = 0.0968	1002.79
277.67 K, m1 = 0.0256	1000.71
277.67 K, m1 = 0.03484	1000.99
277.67 K, m1 = 0.04383	1001.25
277.67 K, m1 = 0.05138	1001.47
277.67 K, m1 = 0.06131	1001.76
277.67 K, m1 = 0.06872	1001.99
277.67 K, m1 = 0.0783	1002.25
277.67 K, m1 = 0.08694	1002.51
278.12 K, m1 = 0.03122	1000.86
278.12 K, m1 = 0.04081	1001.16
278.12 K, m1 = 0.04913	1001.38
278.12 K, m1 = 0.05983	1001.72
278.12 K, m1 = 0.07098	1002.05
278.12 K, m1 = 0.08031	1002.3
278.12 K, m1 = 0.09051	1002.6
278.12 K, m1 = 0.09974	1002.85
278.65 K, m1 = 0.0312	1000.86
278.65 K, m1 = 0.04081	1001.12
278.65 K, m1 = 0.04913	1001.35
278.65 K, m1 = 0.05983	1001.67
278.65 K, m1 = 0.07098	1002
278.65 K, m1 = 0.08031	1002.27
278.65 K, m1 = 0.09051	1002.57
278.65 K, m1 = 0.0997	1002.85

CC(N)C(=O)O (stereo not drawn) [DL-2-aminopropanoic acid] + O
Conditions	mass density [kg/m3]
275.63 K, m1 = 0.0294	1000.85
275.63 K, m1 = 0.04005	1001.17
275.63 K, m1 = 0.04974	1001.47
275.63 K, m1 = 0.0592	1001.76
275.63 K, m1 = 0.0695	1002.07
275.63 K, m1 = 0.08475	1002.53
275.63 K, m1 = 0.0911	1002.72
275.63 K, m1 = 0.1019	1003.05
276.13 K, m1 = 0.03044	1000.88
276.13 K, m1 = 0.04034	1001.19
276.13 K, m1 = 0.04918	1001.46
276.13 K, m1 = 0.05989	1001.78
276.13 K, m1 = 0.07063	1002.11
276.13 K, m1 = 0.07952	1002.37
276.13 K, m1 = 0.09022	1002.69
276.13 K, m1 = 0.09952	1002.98
276.69 K, m1 = 0.03006	1000.88
276.69 K, m1 = 0.04009	1001.19
276.69 K, m1 = 0.04963	1001.48
276.69 K, m1 = 0.0606	1001.81
276.69 K, m1 = 0.0711	1002.13
276.69 K, m1 = 0.07938	1002.37
276.69 K, m1 = 0.08509	1002.54
276.69 K, m1 = 0.09839	1002.95
277.12 K, m1 = 0.03044	1000.89
277.12 K, m1 = 0.04034	1001.19
277.12 K, m1 = 0.0492	1001.46
277.12 K, m1 = 0.05989	1001.78
277.12 K, m1 = 0.07063	1002.1
277.12 K, m1 = 0.07952	1002.37
277.12 K, m1 = 0.09022	1002.7
277.12 K, m1 = 0.09952	1002.97
277.67 K, m1 = 0.02944	1000.85
277.67 K, m1 = 0.04005	1001.17
277.67 K, m1 = 0.04974	1001.46
277.67 K, m1 = 0.0592	1001.74
277.67 K, m1 = 0.0695	1002.06
277.67 K, m1 = 0.08475	1002.51
277.67 K, m1 = 0.0911	1002.7
277.67 K, m1 = 0.1019	1003.04
278.12 K, m1 = 0.03078	1000.9
278.12 K, m1 = 0.03875	1001.11
278.12 K, m1 = 0.04963	1001.45
278.12 K, m1 = 0.05968	1001.76
278.12 K, m1 = 0.0709	1002.09
278.12 K, m1 = 0.07928	1002.34
278.12 K, m1 = 0.09099	1002.69
278.12 K, m1 = 0.1006	1002.98
278.65 K, m1 = 0.03078	1000.89
278.65 K, m1 = 0.03875	1001.13
278.65 K, m1 = 0.04963	1001.45
278.65 K, m1 = 0.05968	1001.75
278.65 K, m1 = 0.0709	1002.09
278.65 K, m1 = 0.07928	1002.34
278.65 K, m1 = 0.09099	1002.68
278.65 K, m1 = 0.1006	1002.96
